The results in this text go back to PMC12647759 (Scientific Reports, 2025).

Where “and” joins values, the source holds several entries; their conditions need not be identical. Identical values can stand only once.

One test addresses T1, human PLCδ1 (Homo sapiens, UniProt P51178).
T1 construct: expressing the full-length polypeptides of human PLCε, PLCβ4, PLCδ1 and PLCγ1 as FLAG fusions; made in house; host or cells: Expi293F cells
T1 sequence (P51178 1-756): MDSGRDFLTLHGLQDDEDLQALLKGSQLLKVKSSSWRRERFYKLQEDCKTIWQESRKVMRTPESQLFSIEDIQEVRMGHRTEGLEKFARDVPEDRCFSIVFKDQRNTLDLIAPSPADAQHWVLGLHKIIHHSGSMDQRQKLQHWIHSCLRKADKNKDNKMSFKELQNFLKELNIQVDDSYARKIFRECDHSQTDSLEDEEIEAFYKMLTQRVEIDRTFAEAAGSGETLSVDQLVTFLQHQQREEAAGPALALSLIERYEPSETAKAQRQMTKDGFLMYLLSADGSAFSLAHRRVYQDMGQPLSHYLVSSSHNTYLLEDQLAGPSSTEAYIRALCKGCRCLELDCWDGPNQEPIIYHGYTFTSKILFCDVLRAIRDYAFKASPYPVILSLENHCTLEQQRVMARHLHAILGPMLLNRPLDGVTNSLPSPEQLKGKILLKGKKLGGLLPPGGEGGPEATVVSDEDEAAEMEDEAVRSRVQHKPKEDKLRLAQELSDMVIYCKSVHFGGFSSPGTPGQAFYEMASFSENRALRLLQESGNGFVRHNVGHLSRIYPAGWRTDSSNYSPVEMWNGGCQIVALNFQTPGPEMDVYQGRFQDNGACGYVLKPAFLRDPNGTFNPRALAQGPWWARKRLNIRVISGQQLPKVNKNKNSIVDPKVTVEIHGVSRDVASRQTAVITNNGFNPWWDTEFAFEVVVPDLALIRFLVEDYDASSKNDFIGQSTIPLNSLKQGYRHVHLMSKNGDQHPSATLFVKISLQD
As to the kind of experiment: In vitro PLC assay using fluorogenic substrate Compound 1, PLCδ1. The test is classed as biochemical. Conditions: for IC50: purified PLCδ1, fluorogenic substrate Compound 1, read-out: IC50, inhibition of PLCδ1 (hydrolysis of Compound 1). Here is the method: Ten µl of 2 × substrate solutions (50 mM HEPES pH7.2, 200 mM NaCl, 0.2 mM CaCl2, 0.4 mM DTT, 0.4 µM EDTA, 0.02% gelatin, 0.2% sodium cholate and 60 µM Compound 1) were added to each well of a 384-well plate (CONING #3573) containing 10 µl of purified PLCε (120 ng) and incubated with shaking at 30 °C for 3 h. After terminating the reaction by the addition of 2 µl of 5 mM EDTA, the fluorescence emission was measured at 520 nm with the excitation at 485 nm by a microplate reader (POLARstar Omega-25). For measuring inhibition by compounds for HTS, the reactions were conducted at RIKEN Center for Sustainable Resource Science (CSRS) as described above except that 5 µl of compound solution and 5 µl of purified PLCe (120 ng) were added to each well. Solution dispensing and fluorescence detection were conducted by using an automated dispenser (EDR-384, Biotec) and a hybrid multi-mode microplate reader (Synergy H4, Biotec), respectively. For determination of the IC50 values for ZPT and Zn^2+, the EDTA concentration was reduced to one-tenth to avoid its zinc-chelating effect. For assay of the other PLC classes, the reactions were performed similarly except that PLCβ4 (5 ng), PLCδ1 (0.1 ng) or PLCγ1 (0.3 ng) was used instead of PLCε.

A further test addresses T2, human PLCε (Homo sapiens, UniProt Q9P212).
T2 construct: expressing the full-length polypeptides of human PLCε, PLCβ4, PLCδ1 and PLCγ1 as FLAG fusions; made in house; host or cells: Expi293F cells
Briefly: In vitro PLC assay using fluorogenic substrate Compound 1 (HTS), PLCε. The test is classed as biochemical. Conditions: for IC50: purified full-length PLCε, fluorogenic substrate Compound 1, read-out: IC50, inhibition of PLCε (hydrolysis of Compound 1). Here is the method:
For measuring inhibition by compounds for HTS, the reactions were conducted at RIKEN Center for Sustainable Resource Science (CSRS) as described above except that 5 µl of compound solution and 5 µl of purified PLCe (120 ng) were added to each well. […] For determination of the IC50 values for ZPT and Zn^2+, the EDTA concentration was reduced to one-tenth to avoid its zinc-chelating effect. For assay of the other PLC classes, the reactions were performed similarly except that PLCβ4 (5 ng), PLCδ1 (0.1 ng) or PLCγ1 (0.3 ng) was used instead of PLCε.

T2 sequence (Q9P212 whole entry, the tested form may be a part): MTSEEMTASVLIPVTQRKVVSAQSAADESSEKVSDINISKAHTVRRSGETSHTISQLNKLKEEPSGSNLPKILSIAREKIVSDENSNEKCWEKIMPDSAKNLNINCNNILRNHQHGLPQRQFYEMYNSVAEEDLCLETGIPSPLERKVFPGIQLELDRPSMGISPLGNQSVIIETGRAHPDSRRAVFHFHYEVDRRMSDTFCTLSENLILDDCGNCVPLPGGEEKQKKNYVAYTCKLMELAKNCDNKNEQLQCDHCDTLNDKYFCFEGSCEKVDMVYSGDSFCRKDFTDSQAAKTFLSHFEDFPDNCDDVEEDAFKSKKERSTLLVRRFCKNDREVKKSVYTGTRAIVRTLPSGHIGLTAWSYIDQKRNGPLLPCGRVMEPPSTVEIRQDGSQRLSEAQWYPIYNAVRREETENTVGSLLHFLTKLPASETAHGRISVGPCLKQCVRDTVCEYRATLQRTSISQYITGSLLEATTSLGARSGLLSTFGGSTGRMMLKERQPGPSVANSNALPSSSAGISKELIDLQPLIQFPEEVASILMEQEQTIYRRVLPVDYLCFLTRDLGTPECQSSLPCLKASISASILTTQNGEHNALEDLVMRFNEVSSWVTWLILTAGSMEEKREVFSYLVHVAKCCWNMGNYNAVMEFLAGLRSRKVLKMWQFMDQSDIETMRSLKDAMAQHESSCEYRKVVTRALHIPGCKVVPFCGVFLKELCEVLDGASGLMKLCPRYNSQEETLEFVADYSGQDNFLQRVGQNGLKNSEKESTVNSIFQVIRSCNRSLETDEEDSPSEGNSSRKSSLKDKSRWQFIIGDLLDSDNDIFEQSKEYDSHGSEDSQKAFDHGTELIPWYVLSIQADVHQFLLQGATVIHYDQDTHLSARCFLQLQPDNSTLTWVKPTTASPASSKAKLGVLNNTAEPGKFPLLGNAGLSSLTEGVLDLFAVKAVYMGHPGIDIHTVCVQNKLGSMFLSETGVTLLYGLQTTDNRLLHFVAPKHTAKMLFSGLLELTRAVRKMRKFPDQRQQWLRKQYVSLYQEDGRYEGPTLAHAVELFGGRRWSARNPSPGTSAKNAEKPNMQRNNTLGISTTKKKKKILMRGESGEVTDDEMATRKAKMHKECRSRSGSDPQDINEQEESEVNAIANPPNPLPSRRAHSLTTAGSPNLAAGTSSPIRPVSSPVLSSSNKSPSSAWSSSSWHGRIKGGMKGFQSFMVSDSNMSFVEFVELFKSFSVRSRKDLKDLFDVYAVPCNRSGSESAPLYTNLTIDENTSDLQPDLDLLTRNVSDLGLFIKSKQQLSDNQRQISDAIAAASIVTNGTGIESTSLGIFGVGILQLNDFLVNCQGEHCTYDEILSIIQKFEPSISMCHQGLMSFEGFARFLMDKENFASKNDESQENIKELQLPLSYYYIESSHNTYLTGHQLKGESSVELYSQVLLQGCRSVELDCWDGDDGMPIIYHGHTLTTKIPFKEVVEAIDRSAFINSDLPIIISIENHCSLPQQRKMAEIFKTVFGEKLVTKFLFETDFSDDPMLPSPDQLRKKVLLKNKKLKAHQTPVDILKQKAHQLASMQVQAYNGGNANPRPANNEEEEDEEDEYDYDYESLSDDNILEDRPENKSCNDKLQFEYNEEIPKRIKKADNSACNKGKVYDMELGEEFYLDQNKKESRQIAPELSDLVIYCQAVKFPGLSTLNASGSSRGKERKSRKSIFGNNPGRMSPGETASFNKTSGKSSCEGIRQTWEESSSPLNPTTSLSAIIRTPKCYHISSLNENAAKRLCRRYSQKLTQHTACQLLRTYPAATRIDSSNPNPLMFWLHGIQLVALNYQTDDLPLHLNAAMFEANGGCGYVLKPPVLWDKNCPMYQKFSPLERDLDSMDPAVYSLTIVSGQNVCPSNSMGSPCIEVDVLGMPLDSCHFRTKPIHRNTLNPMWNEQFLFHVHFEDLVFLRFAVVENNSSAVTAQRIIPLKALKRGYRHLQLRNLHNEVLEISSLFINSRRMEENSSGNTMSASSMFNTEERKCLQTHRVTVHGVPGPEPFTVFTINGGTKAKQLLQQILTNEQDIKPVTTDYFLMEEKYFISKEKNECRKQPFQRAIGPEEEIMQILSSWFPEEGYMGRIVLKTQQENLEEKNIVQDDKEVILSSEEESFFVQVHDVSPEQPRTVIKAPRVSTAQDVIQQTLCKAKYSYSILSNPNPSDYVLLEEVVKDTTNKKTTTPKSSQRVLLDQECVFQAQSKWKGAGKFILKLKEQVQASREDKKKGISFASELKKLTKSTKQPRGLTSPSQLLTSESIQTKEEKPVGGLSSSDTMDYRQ

Broadly, the IC50 is the concentration that inhibits the measured activity by half. `CCCCCCOc1ccc2c(c1)Oc1cc(OP(=O)(O)O[C@H]3[C@H](O)[C@@H](O)[C@H](OP(=O)(O)O)[C@@H](O)[C@H]3O)ccc1C21OC(=O)c2ccccc21` (stereo partly drawn) [compound 1]: the figures for the IC50 at human PLCδ1 and at human PLCε were 400 nM and 3100 nM, respectively.

Consider `C[n+]1cc2c3c(ccc2c2ccc4cc5c(cc4c21)OCO5)OCO3` [Sanguinarine, sanguinarine], for which the IC50 on human PLCδ1 was 48000 nM and 47800 nM; at human PLCε it was 1900 nM.

For the compound `O=S(=O)([O-])[O-].[Zn+2]` [ZnSO4], the “inhibitory activity toward PLCδ” value at human PLCδ1 (Compound 1 as substrate, varying concentrations) is “without exhibiting any noticeable inhibitory activities”. Besides, at human PLCε (5 µM ZnSO4, varying concentrations of sodium pyrithione), the “PLCε inhibitory activity of ZnSO4 on addition of excess sodium pyrithione” value is on record as “compromised the inhibitory activity of ZnSO4 in a dose-dependent manner”. The IC50 on human PLCε stood at 1200 nM.

As for `COc1ccc2c(c[n+](C)c3c4cc5c(cc4ccc23)OCO5)c1OC` [chelerythrine], the half-inhibitory concentration (IC50) on human PLCδ1 is 7300 nM; on human PLCε, 1300 nM.
